The subject of this experiment is Isolated Rat Bladder Strips. The experiment is described as follows: Inhibition of Contractions in Isolated Rat Bladder Strips (smooth muscle relaxing activity, 15 mM KCl-enhanced contractile activity). On the set-up: species or system Sprague-Dawley rats. The note with it: for inhibition at 30 µM: Rattus norvegicus, maximum percentage inhibition of contractile activity, read-out: Inhibition of Force (%) at (X) μM. From the text: The smooth muscle relaxing activity of the compounds of this invention was established in accordance with standard pharmaceutically accepted test procedures in representative compounds as follows:
Sprague-Dawley rats (150-200 g) are rendered unconscious by CO2 asphyxiation and then euthanized by cervical dislocation. The bladder is removed into warm (37 deg.C.) physiological salt solution (PSS) of the following composition (mM): NaCl, 118.4; KCl, 4.7; CaCl2, 2.5; […]; NaHCO3, 24.9; KH2 PO4, 1.2; glucose, 11.1; EDTA, 0.023; gassed with […]; pH 7.4. The bladder is opened and then cut into strips 1-2 mm in width and 7-10 mm in length. The strips are subsequently suspended in a 10 ml tissue bath under an initial resting tension of 1.5 g. The strips are held in place by two surgical clips one of which is attached to fixed hook while the other is attached to an isometric force transducer. […] The carbachol is then washed out and the tissue allowed to relax to its resting level of activity. Following an additional 30 minute period of recovery an additional 15 mM KCl are introduced into the tissue bath. This increase in KCl concentration results in a large increase in the amplitude of spontaneous contractions (and initiation of contractions in previously quiescent strips) superimposed upon a small increase in basal tone. Following stabilization of this enhanced level of contractile activity, incremental increases in the concentration of test compound or vehicle are introduced into the tissue bath. Contractile activity is measured for each compound or vehicle concentration during the last min of a 30 min challenge.
Isometric force developed by the bladder strips is measured using a […] to elicit 50% inhibition of pre-drug contractile activity (IC50 concentration) is calculated from this concentration-response curve. The maximum percentage inhibition of contractile activity evoked by a test compound is also recorded for concentrations of test compound<or equal to 30 uM.

What is called inhibition is the drop in the measured response relative to a control, in per cent. Consider `CC1(C)Oc2ccc(OC(F)(F)F)cc2[C@@H](NC2=NS(=O)(=O)N=C2N)[C@@H]1O` [Example 2, (-)-(3S,4R)-4-(4-Amino-1,1-dioxo-[1,2,5]thiadiazol-3-ylamino)2,2-dimethyl-6-trifluoromethoxy-chroman-3-ol], for which the inhibition at 30 µM was 33%.
On to `CNC1=NS(=O)(=O)N=C1N[C@@H]1c2cc(OC(F)(F)F)ccc2OC(C)(C)[C@H]1O` [Example 3, (-)-(3S,4R)-2,2-Dimethyl-4-(4-methylamino-1,1-dioxo-[1,2,5]-thiadiazol-3-ylamino)-6-trifluoromethoxy-chroman-3-ol], for which the inhibition at 30 µM was determined as 95%. Moreover, under “0.5 h, isolated rat bladder strips, 15 mM KCl, last min of a 30 min challenge, read-out: IC50 (concentration required to elicit 50% inhibition of pre-drug contractile activity)”, the IC50 stood at 4.8 µM.

Source of the values: patent US5206252A, “Thiadiazolyl-amino derivatives of benzopyrans and indanes” (American Home Products Corporation, priority 1992, dated 1993).
